# From ChEMBL document CHEMBL3102801, “Synthesis and antiproliferative activity of new derivatives containing the polycyclic system 5,7:7,13-dimethanopyrazolo[3,4-b]pyrazolo[3',4':2,3]azepino[4,5-f]azocine” (Eur J Med Chem, 2014)
# Legend:
# Assay type in all cases: functional
# [1] = tested on: MCF7; assay: Growth inhibition of human MCF7 cells after 48 hrs by sulforhodamine B assay; settings: MCF7, 48 h
# [2] = tested on: T47D; assay: Growth inhibition of human T47D cells after 48 hrs by sulforhodamine B assay
# [3] = Growth inhibition of human RXF393 cells after 48 hrs by sulforhodamine B assay; settings: RXF 393, 48 h
# [4] = tested on: PC-3; assay: Growth inhibition of human PC3 cells after 48 hrs by sulforhodamine B assay; settings: PC-3, 48 h
# [5] = Growth inhibition of human OVCAR4 cells after 48 hrs by sulforhodamine B assay; settings: OVCAR-4, 48 h
# [6] = tested on: IGROV-1; assay: Growth inhibition of human IGROV1 cells after 48 hrs by sulforhodamine B assay; settings: IGROV-1, 48 h
# [7] = tested on: TK-10; assay: Growth inhibition of human TK10 cells after 48 hrs by sulforhodamine B assay; settings: TK-10, 48 h
# [8] = tested on: HOP-62; assay: Growth inhibition of human HOP62 cells after 48 hrs by sulforhodamine B assay; settings: HOP-62, 48 h
# [9] = Growth inhibition of human NCI-ADR-RES cells after 48 hrs by sulforhodamine B assay
# [10] = Growth inhibition of human HOP92 cells after 48 hrs by sulforhodamine B assay; settings: HOP-92, 48 h
# [11] = Growth inhibition of human OVCAR5 cells after 48 hrs by sulforhodamine B assay; settings: OVCAR-5, 48 h
# [12] = tested on: MDA-MB-231; assay: Growth inhibition of human MDA-MB-231 cells after 48 hrs by sulforhodamine B assay; settings: MDA-MB-231, 48 h
# [13] = tested on: SK-OV-3; assay: Growth inhibition of human SKOV3 cells after 48 hrs by sulforhodamine B assay; settings: SK-OV-3, 48 h
# [14] = tested on: A498; assay: Growth inhibition of human A498 cells after 48 hrs by sulforhodamine B assay; settings: A498, 48 h
# [15] = tested on: NCI-H226; assay: Growth inhibition of human NCI-H226 cells after 48 hrs by sulforhodamine B assay; settings: NCI-H226, 48 h
# [16] = tested on: NCI-H23; assay: Growth inhibition of human NCI-H23 cells after 48 hrs by sulforhodamine B assay; settings: NCI-H23, 48 h
# [17] = tested on: NCI-H322M; assay: Growth inhibition of human NCI-H322M cells after 48 hrs by sulforhodamine B assay
# [18] = tested on: SN12C; assay: Growth inhibition of human SN12C cells after 48 hrs by sulforhodamine B assay
# [19] = Growth inhibition of human UO31 cells after 48 hrs by sulforhodamine B assay; settings: UO-31, 48 h
# [20] = tested on: SK-MEL-2; assay: Growth inhibition of human SK-MEL-2 cells after 48 hrs by sulforhodamine B assay; settings: SK-MEL-2, 48 h
# [21] = Growth inhibition of human SF539 cells after 48 hrs by sulforhodamine B assay; settings: SF-539, 48 h
# [22] = tested on: SNB-19; assay: Growth inhibition of human SNB19 cells after 48 hrs by sulforhodamine B assay; settings: SNB-19, 48 h
# [23] = tested on: BT-549; assay: Growth inhibition of human BT549 cells after 48 hrs by sulforhodamine B assay; settings: BT-549, 48 h
# [24] = Growth inhibition of human HCC2998 cells after 48 hrs by sulforhodamine B assay; settings: HCC 2998, 48 h
# [25] = tested on: 786-0; assay: Growth inhibition of human 786-0 cells after 48 hrs by sulforhodamine B assay; settings: 786-0, 48 h
# [26] = tested on: NCI-H522; assay: Growth inhibition of human NCI-H522 cells after 48 hrs by sulforhodamine B assay; settings: NCI-H522, 48 h
# [27] = Growth inhibition of human Hs 578T cells after 48 hrs by sulforhodamine B assay
# [28] = tested on: Malme-3M; assay: Growth inhibition of human MALME-3M cells after 48 hrs by sulforhodamine B assay
# [29] = tested on: SK-MEL-28; assay: Growth inhibition of human SK-MEL-28 cells after 48 hrs by sulforhodamine B assay; settings: SK-MEL-28, 48 h
# [30] = tested on: SF-268; assay: Growth inhibition of human SF268 cells after 48 hrs by sulforhodamine B assay; settings: SF-268, 48 h
# [31] = tested on: ACHN; assay: Growth inhibition of human ACHN cells after 48 hrs by sulforhodamine B assay
# [32] = tested on: DU-145; assay: Growth inhibition of human DU145 cells after 48 hrs by sulforhodamine B assay; settings: DU-145, 48 h
# [33] = tested on: HCT-116; assay: Growth inhibition of human HCT116 cells after 48 hrs by sulforhodamine B assay; settings: HCT-116, 48 h
# [34] = tested on: OVCAR-8; assay: Growth inhibition of human OVCAR8 cells after 48 hrs by sulforhodamine B assay; settings: OVCAR-8, 48 h
# [35] = tested on: MDA-MB-468; assay: Growth inhibition of human MDA-MB-468 cells after 48 hrs by sulforhodamine B assay; settings: MDA-MB-468, 48 h
# [36] = tested on: NCI-H460; assay: Growth inhibition of human NCI-H460 cells after 48 hrs by sulforhodamine B assay; settings: NCI-H460, 48 h
# [37] = Growth inhibition of human UACC257 cells after 48 hrs by sulforhodamine B assay; settings: UACC-257, 48 h
# [38] = tested on: U-251; assay: Growth inhibition of human U251 cells after 48 hrs by sulforhodamine B assay; settings: U-251, 48 h
# [39] = tested on: HT-29; assay: Growth inhibition of human HT-29 cells after 48 hrs by sulforhodamine B assay; settings: HT-29, 48 h
# [40] = tested on: OVCAR-3; assay: Growth inhibition of human OVCAR3 cells after 48 hrs by sulforhodamine B assay; settings: OVCAR-3, 48 h
# [41] = tested on: A549; assay: Growth inhibition of human A549 cells after 48 hrs by sulforhodamine B assay; settings: A549, 48 h
# [42] = tested on: UACC-62; assay: Growth inhibition of human UACC62 cells after 48 hrs by sulforhodamine B assay; settings: UACC-62, 48 h
# [43] = tested on: MDA-MB-435; assay: Growth inhibition of human MDA-MB-435 cells after 48 hrs by sulforhodamine B assay; settings: MDA-MB-435, 48 h
# [44] = tested on: HCT-15; assay: Growth inhibition of human HCT15 cells after 48 hrs by sulforhodamine B assay; settings: HCT-15, 48 h
smiles,measurement,setting,value
Cc1nn(-c2ccccc2)c2c1C(C)C1CC3(CC4(C)CC3C1(C)c1c(C)nn(-c3ccccc3)c1N4C)N2C (stereo not drawn),GI50,[1],3.46 µM
same,GI50,[2],2.64 µM
same,GI50,[3],3.41 µM
same,GI50,[4],0.591 µM
same,GI50,[5],8.66 µM
same,GI50,[6],> 100 µM
same,GI50,[7],> 100 µM
same,GI50,[8],18.3 µM
same,GI50,[9],> 100 µM
same,GI50,[10],0.792 µM
same,GI50,[11],> 100 µM
same,GI50,[12],> 100 µM
same,GI50,[13],24.1 µM
same,GI50,[14],> 100 µM
same,GI50,[15],> 100 µM
same,GI50,[16],> 100 µM
same,GI50,[17],> 100 µM
same,GI50,[18],> 100 µM
same,GI50,[19],> 100 µM
same,GI50,[20],> 100 µM
same,GI50,[21],> 100 µM
same,GI50,[22],> 100 µM
same,GI50,[23],> 100 µM
same,GI50,[24],> 100 µM
same,GI50,[25],> 100 µM
same,GI50,[26],3.88 µM
same,GI50,[27],> 100 µM
same,GI50,[28],> 100 µM
same,GI50,[29],3.14 µM
same,GI50,[30],> 100 µM
COc1ccc(-n2nc(C)c3c2N(C)C2(C)CC4C3(C)C3CC4(C2)N(C)c2c(c(C)nn2-c2ccc(OC)cc2)C3C)cc1 (stereo not drawn),GI50,[31],6.13 µM
same,GI50,[1],4.02 µM
same,GI50,[2],2.44 µM
same,GI50,[3],2.92 µM
same,GI50,[4],1.71 µM
same,GI50,[32],23 µM
same,GI50,[5],5.95 µM
same,GI50,[6],19.5 µM
same,GI50,[33],2.09 µM
same,GI50,[7],4.77 µM
same,GI50,[8],3.1 µM
same,GI50,[34],4.19 µM
same,GI50,[9],8.03 µM
same,GI50,[11],> 100 µM
same,GI50,[35],4.76 µM
same,GI50,[36],3.69 µM
same,GI50,[37],2.34 µM
same,GI50,[38],3.94 µM
same,GI50,[39],3.39 µM
same,GI50,[12],6.35 µM
same,GI50,[13],2.53 µM
same,GI50,[14],3.95 µM
same,GI50,[15],5.34 µM
same,GI50,[16],18.7 µM
same,GI50,[17],22.4 µM
same,GI50,[18],8.07 µM
same,GI50,[20],7.29 µM
same,GI50,[40],7.14 µM
same,GI50,[21],63.5 µM
same,GI50,[22],4.45 µM
same,GI50,[23],4.17 µM
same,GI50,[24],9.65 µM
same,GI50,[25],5.47 µM
same,GI50,[26],0.891 µM
same,GI50,[27],4.27 µM
same,GI50,[28],6.34 µM
same,GI50,[41],3.29 µM
same,GI50,[29],1.52 µM
same,GI50,[42],12.6 µM
same,GI50,[30],4.08 µM
C=C1c2c(C)nn(-c3ccccc3)c2N(C)C23CC1C1(C)c4c(C)nn(-c5ccccc5)c4N(C)C(C)(CC12)C3 (stereo not drawn),GI50,[31],4.78 µM
same,GI50,[1],2.99 µM
same,GI50,[2],2.13 µM
same,GI50,[3],2.04 µM
same,GI50,[4],0.979 µM
same,GI50,[32],8.7 µM
same,GI50,[5],4.49 µM
same,GI50,[6],11.9 µM
same,GI50,[33],3.72 µM
same,GI50,[7],4.77 µM
same,GI50,[8],7.15 µM
same,GI50,[34],5.41 µM
same,GI50,[9],6.04 µM
same,GI50,[10],0.549 µM
same,GI50,[11],> 100 µM
same,GI50,[35],2.9 µM
same,GI50,[36],3.35 µM
same,GI50,[37],2.87 µM
same,GI50,[38],4.44 µM
same,GI50,[39],3.59 µM
same,GI50,[43],4.12 µM
same,GI50,[12],4.55 µM
same,GI50,[13],4.64 µM
same,GI50,[14],4.28 µM
same,GI50,[15],15.3 µM
same,GI50,[16],7.99 µM
same,GI50,[17],33.8 µM
same,GI50,[18],9.92 µM
same,GI50,[20],6.78 µM
same,GI50,[40],4.58 µM
same,GI50,[21],26.7 µM
same,GI50,[22],11 µM
same,GI50,[23],5.55 µM
same,GI50,[44],3.67 µM
same,GI50,[24],6.22 µM
same,GI50,[25],11.8 µM
same,GI50,[26],2.12 µM
same,GI50,[27],5.67 µM
same,GI50,[28],4.19 µM
same,GI50,[41],2.37 µM
same,GI50,[29],2.26 µM
same,GI50,[42],4.38 µM
same,GI50,[30],7.52 µM
